{"source": "ChEMBL document CHEMBL3734705", "about": "“Synthesis and in vitro cytotoxicity of novel C-12 substituted-14-deoxy-andrographolide derivatives as potent anti-cancer agents” (2015)", "key": {"[1]": {"assay": "Cytotoxicity against human RPMI8226 cells assessed as growth level at 10 uM after 48 hrs by SRB assay", "format": "functional, RPMI-8226"}, "EKVX": {"tested_on": "EKVX", "assay": "Cytotoxicity against human EKVX cells assessed as growth level at 10 uM after 48 hrs by SRB assay", "format": "functional"}, "[2]": {"assay": "Cytotoxicity against human HOP62 cells assessed as growth level at 10 uM after 48 hrs by SRB assay", "format": "functional, HOP-62"}, "NCI-H522": {"tested_on": "NCI-H522", "assay": "Cytotoxicity against human NCI-H522 cells assessed as growth level at 10 uM after 48 hrs by SRB assay", "format": "functional"}, "[3]": {"assay": "Cytotoxicity against human COLO205 cells assessed as growth level at 10 uM after 48 hrs by SRB assay", "format": "functional, COLO 205"}, "HT-29 [4]": {"tested_on": "HT-29", "assay": "Cytotoxicity against human HT-29 cells assessed as growth level at 10 uM after 48 hrs by SRB assay", "format": "functional"}, "[5]": {"assay": "Cytotoxicity against human SW620 cells assessed as growth level at 10 uM after 48 hrs by SRB assay", "format": "functional, SW-620"}, "[6]": {"assay": "Cytotoxicity against human SF268 cells assessed as growth level at 10 uM after 48 hrs by SRB assay", "format": "functional, SF-268"}, "[7]": {"assay": "Cytotoxicity against human SF539 cells assessed as growth level at 10 uM after 48 hrs by SRB assay", "format": "functional, SF-539"}, "[8]": {"assay": "Cytotoxicity against human LOXIMVI cells assessed as growth level at 10 uM after 48 hrs by SRB assay", "format": "functional, LOX IMVI"}, "M14": {"tested_on": "M14", "assay": "Cytotoxicity against human M14 cells assessed as growth level at 10 uM after 48 hrs by SRB assay", "format": "functional"}, "MDA-MB-435 [9]": {"tested_on": "MDA-MB-435", "assay": "Cytotoxicity against human MDA-MB-435 cells assessed as growth level at 10 uM after 48 hrs by SRB assay", "format": "functional"}, "[10]": {"assay": "Cytotoxicity against human UACC257 cells assessed as growth level at 10 uM after 48 hrs by SRB assay", "format": "functional, UACC-257"}, "[11]": {"assay": "Cytotoxicity against human IGROV1 cells assessed as growth level at 10 uM after 48 hrs by SRB assay", "format": "functional, IGROV-1"}, "[12]": {"assay": "Cytotoxicity against human OVCAR8 cells assessed as growth level at 10 uM after 48 hrs by SRB assay", "format": "functional, OVCAR-8"}, "[13]": {"assay": "Cytotoxicity against human SKOV3 cells assessed as growth level at 10 uM after 48 hrs by SRB assay", "format": "functional, SK-OV-3"}, "786-0 [14]": {"tested_on": "786-0", "assay": "Cytotoxicity against human 786-0 cells assessed as growth level at 10 uM after 48 hrs by SRB assay", "format": "functional"}, "A498": {"tested_on": "A498", "assay": "Cytotoxicity against human A498 cells assessed as growth level at 10 uM after 48 hrs by SRB assay", "format": "functional"}, "[15]": {"assay": "Cytotoxicity against human TK10 cells assessed as growth level at 10 uM after 48 hrs by SRB assay", "format": "functional, TK-10"}, "[16]": {"assay": "Cytotoxicity against human Hs578T cells assessed as growth level at 10 uM after 48 hrs by SRB assay", "format": "functional, Hs-578T"}, "MDA-MB-468 [17]": {"tested_on": "MDA-MB-468", "assay": "Cytotoxicity against human MDA-MB-468 cells assessed as growth level at 10 uM after 48 hrs by SRB assay", "format": "functional"}, "[18]": {"assay": "Cytotoxicity against human HL-60(TB) cells assessed as growth inhibition at 10 uM after 48 hrs by SRB assay", "format": "functional", "conditions": "HL-60, 48 h, read-out: GI"}, "A549": {"tested_on": "A549", "assay": "Cytotoxicity against human A549 cells assessed as growth inhibition at 10 uM after 48 hrs by SRB assay", "format": "functional", "conditions": "A549, 48 h, read-out: GI"}, "[19]": {"assay": "Cytotoxicity against human HOP62 cells assessed as growth inhibition at 10 uM after 48 hrs by SRB assay", "format": "functional", "conditions": "HOP-62, 48 h, read-out: GI"}, "NCI-H226": {"tested_on": "NCI-H226", "assay": "Cytotoxicity against human NCI-H226 cells assessed as growth inhibition at 10 uM after 48 hrs by SRB assay", "format": "functional", "conditions": "NCI-H226, 48 h, read-out: GI"}, "NCI-H322M": {"tested_on": "NCI-H322M", "assay": "Cytotoxicity against human NCI-H322M cells assessed as growth inhibition at 10 uM after 48 hrs by SRB assay", "format": "functional", "conditions": "read-out: GI"}, "[20]": {"assay": "Cytotoxicity against human COLO205 cells assessed as growth inhibition at 10 uM after 48 hrs by SRB assay", "format": "functional", "conditions": "COLO 205, 48 h, read-out: GI"}, "HT-29 [21]": {"tested_on": "HT-29", "assay": "Cytotoxicity against human HT-29 cells assessed as growth inhibition at 10 uM after 48 hrs by SRB assay", "format": "functional", "conditions": "HT-29, 48 h, read-out: GI"}, "[22]": {"assay": "Cytotoxicity against human SF295 cells assessed as growth inhibition at 10 uM after 48 hrs by SRB assay", "format": "functional", "conditions": "SF-295, 48 h, read-out: GI"}, "[23]": {"assay": "Cytotoxicity against human SNB75 cells assessed as growth inhibition at 10 uM after 48 hrs by SRB assay", "format": "functional", "conditions": "SNB-75, 48 h, read-out: GI"}, "[24]": {"assay": "Cytotoxicity against human LOXIMVI cells assessed as growth inhibition at 10 uM after 48 hrs by SRB assay", "format": "functional", "conditions": "LOX IMVI, read-out: GI"}, "MDA-MB-435 [25]": {"tested_on": "MDA-MB-435", "assay": "Cytotoxicity against human MDA-MB-435 cells assessed as growth inhibition at 10 uM after 48 hrs by SRB assay", "format": "functional", "conditions": "MDA-MB-435, 48 h, read-out: GI"}, "[26]": {"assay": "Cytotoxicity against human UACC62 cells assessed as growth inhibition at 10 uM after 48 hrs by SRB assay", "format": "functional", "conditions": "UACC-62, 48 h, read-out: GI"}, "[27]": {"assay": "Cytotoxicity against human OVCAR4 cells assessed as growth inhibition at 10 uM after 48 hrs by SRB assay", "format": "functional", "conditions": "OVCAR-4, 48 h, read-out: GI"}, "[28]": {"assay": "Cytotoxicity against human SKOV3 cells assessed as growth inhibition at 10 uM after 48 hrs by SRB assay", "format": "functional", "conditions": "SK-OV-3, 48 h, read-out: GI"}, "786-0 [29]": {"tested_on": "786-0", "assay": "Cytotoxicity against human 786-0 cells assessed as growth inhibition at 10 uM after 48 hrs by SRB assay", "format": "functional", "conditions": "786-0, 48 h, read-out: GI"}, "[30]": {"assay": "Cytotoxicity against human Caki1 cells assessed as growth inhibition at 10 uM after 48 hrs by SRB assay", "format": "functional", "conditions": "CAKI-1, 48 h, read-out: GI"}, "[31]": {"assay": "Cytotoxicity against human TK10 cells assessed as growth inhibition at 10 uM after 48 hrs by SRB assay", "format": "functional", "conditions": "TK-10, 48 h, read-out: GI"}, "[32]": {"assay": "Cytotoxicity against human PC3 cells assessed as growth inhibition at 10 uM after 48 hrs by SRB assay", "format": "functional", "conditions": "PC-3, 48 h, read-out: GI"}, "MCF7": {"tested_on": "MCF7", "assay": "Cytotoxicity against human MCF7 cells assessed as growth inhibition at 10 uM after 48 hrs by SRB assay", "format": "functional", "conditions": "MCF7, 48 h, read-out: GI"}, "MDA-MB-231": {"tested_on": "MDA-MB-231", "assay": "Cytotoxicity against human MDA-MB-231 cells assessed as growth inhibition at 10 uM after 48 hrs by SRB assay", "format": "functional", "conditions": "MDA-MB-231, 48 h, read-out: GI"}, "MDA-MB-468 [33]": {"tested_on": "MDA-MB-468", "assay": "Cytotoxicity against human MDA-MB-468 cells assessed as growth inhibition at 10 uM after 48 hrs by SRB assay", "format": "functional", "conditions": "MDA-MB-468, 48 h, read-out: GI"}, "CCRF-CEM": {"tested_on": "CCRF-CEM", "assay": "Cytotoxicity against human CCRF-CEM cells assessed as growth level at 10 uM after 48 hrs by SRB assay", "format": "functional"}, "[34]": {"assay": "Cytotoxicity against human HL-60(TB) cells assessed as growth level at 10 uM after 48 hrs by SRB assay", "format": "functional"}}, "data": [{"smiles": "C=C1CC[C@@H]2[C@](C)(COC(C)=O)[C@H](OC(C)=O)CC[C@@]2(C)[C@@H]1CC(NCCCCCCCC)C1=CCOC1=O", "note": "(mixture of isomers)", "values": [{"measurement": "Activity", "setting": "[1]", "result": 35.98, "unit": "%"}, {"measurement": "Activity", "setting": "EKVX", "result": 75.77, "unit": "%"}, {"measurement": "Activity", "setting": "[2]", "result": 91.97, "unit": "%"}, {"measurement": "Activity", "setting": "NCI-H522", "result": 64.41, "unit": "%"}, {"measurement": "Activity", "setting": "[3]", "result": 70.75, "unit": "%"}, {"measurement": "Activity", "setting": "HT-29 [4]", "result": 70.47, "unit": "%"}, {"measurement": "Activity", "setting": "[5]", "result": 72.43, "unit": "%"}, {"measurement": "Activity", "setting": "[6]", "result": 67.83, "unit": "%"}, {"measurement": "Activity", "setting": "[7]", "result": 89.25, "unit": "%"}, {"measurement": "Activity", "setting": "[8]", "result": 53.89, "unit": "%"}, {"measurement": "Activity", "setting": "M14", "result": 75.91, "unit": "%"}, {"measurement": "Activity", "setting": "MDA-MB-435 [9]", "result": 77.59, "unit": "%"}, {"measurement": "Activity", "setting": "[10]", "result": 61.1, "unit": "%"}, {"measurement": "Activity", "setting": "[11]", "result": 70.18, "unit": "%"}, {"measurement": "Activity", "setting": "[12]", "result": 70.96, "unit": "%"}, {"measurement": "Activity", "setting": "[13]", "result": 77.13, "unit": "%"}, {"measurement": "Activity", "setting": "786-0 [14]", "result": 79.87, "unit": "%"}, {"measurement": "Activity", "setting": "A498", "result": 64.34, "unit": "%"}, {"measurement": "Activity", "setting": "[15]", "result": 82.68, "unit": "%"}, {"measurement": "Activity", "setting": "[16]", "result": 83.08, "unit": "%"}, {"measurement": "Activity", "setting": "MDA-MB-468 [17]", "result": 32.04, "unit": "%"}, {"measurement": "inhibition of growth at 10 µM", "setting": "[18]", "result": 41.1, "unit": "%"}, {"measurement": "inhibition of growth at 10 µM", "setting": "A549", "result": 32.8, "unit": "%"}, {"measurement": "inhibition of growth at 10 µM", "setting": "[19]", "result": 8.03, "unit": "%"}, {"measurement": "inhibition of growth at 10 µM", "setting": "NCI-H226", "result": 34.2, "unit": "%"}, {"measurement": "inhibition of growth at 10 µM", "setting": "NCI-H322M", "result": 1.99, "unit": "%"}, {"measurement": "inhibition of growth at 10 µM", "setting": "[20]", "result": 29.2, "unit": "%"}, {"measurement": "inhibition of growth at 10 µM", "setting": "HT-29 [21]", "result": 29.5, "unit": "%"}, {"measurement": "inhibition of growth at 10 µM", "setting": "[22]", "result": 19, "unit": "%"}, {"measurement": "inhibition of growth at 10 µM", "setting": "[23]", "result": 25.4, "unit": "%"}, {"measurement": "inhibition of growth at 10 µM", "setting": "[24]", "result": 46.1, "unit": "%"}, {"measurement": "inhibition of growth at 10 µM", "setting": "MDA-MB-435 [25]", "result": 22.4, "unit": "%"}, {"measurement": "inhibition of growth at 10 µM", "setting": "[26]", "result": 52.3, "unit": "%"}, {"measurement": "inhibition of growth at 10 µM", "setting": "[27]", "result": 47.7, "unit": "%"}, {"measurement": "inhibition of growth at 10 µM", "setting": "[28]", "result": 22.9, "unit": "%"}, {"measurement": "inhibition of growth at 10 µM", "setting": "786-0 [29]", "result": 20.1, "unit": "%"}, {"measurement": "inhibition of growth at 10 µM", "setting": "[30]", "result": 31.3, "unit": "%"}, {"measurement": "inhibition of growth at 10 µM", "setting": "[31]", "result": 17.3, "unit": "%"}, {"measurement": "inhibition of growth at 10 µM", "setting": "[32]", "result": 66.4, "unit": "%"}, {"measurement": "inhibition of growth at 10 µM", "setting": "MCF7", "result": 31.2, "unit": "%"}, {"measurement": "inhibition of growth at 10 µM", "setting": "MDA-MB-231", "result": 29.2, "unit": "%"}, {"measurement": "inhibition of growth at 10 µM", "setting": "MDA-MB-468 [33]", "result": 68, "unit": "%"}, {"measurement": "Activity", "setting": "CCRF-CEM", "result": 47.26, "unit": "%"}, {"measurement": "Activity", "setting": "[34]", "result": 58.93, "unit": "%"}]}]}
